Test systems include CAKI-1; KM12; Malme-3M; SK-OV-3; SK-MEL-28; HCT-15; HOP-62; SF-295; EKVX; A549; SNB-19; MDA-N; SK-MEL-5; MDA-MB-435; SNB-75; SN12C; U-251; NCI-H226; HCC 2998.
Assay in all cases: NCI tumour cell line growth inhibition, 48 h

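Results reflect a 48-hour exposure of cells in 96-well plates to compound at five concentrations. Abbreviation: GI50, concentration required for 50% inhibition of growth.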 Calls of active or inactive are those of the source. Rule as the data show it: active = GI50 up to about 1.1 µM and inactive = higher. Where only a bound is given, the exact number is not on record here.

Consider `CN(C)S(=O)(=O)c1ccc(Nc2ccc(O)c3c2C(=O)c2c([N+](=O)[O-])ccc(O)c2C3=O)cc1`, for which the GI50 in the test with CAKI-1 is > 100 µM (inactive); with KM12, > 100 µM (inactive); with Malme-3M, 57.4 µM (inactive); in the test with SK-OV-3, > 100 µM (inactive); with SK-MEL-28, > 100 µM (inactive); in the test on HCT-15, above 100 µM. Also, the GI50 in the test on HOP-62, with SF-295, with EKVX, in the test with A549, with SNB-19 and in the test on MDA-N was > 100 µM (inactive) throughout. Further, the GI50 with SK-MEL-5 was 72.3 µM (inactive); in the test with MDA-MB-435 it was > 100 µM (inactive); in the test on SNB-75, > 100 µM (inactive); with SN12C, > 100 µM (inactive); with U-251, > 100 µM (inactive).
With `Cc1ncn(-c2ccccc2O)c1C`, the GI50 in the test on CAKI-1 was > 100 µM (inactive); in the test with KM12, > 100 µM (inactive); in the test with Malme-3M, > 100 µM (inactive); with SK-OV-3 it was > 100 µM (inactive); with SK-MEL-28, > 100 µM (inactive); in the test on HCT-15, above 100 µM. Moreover, the GI50 in the test on HOP-62 was > 100 µM (inactive); with NCI-H226, > 100 µM (inactive); with SF-295, 55.5 µM (inactive); in the test with EKVX, > 100 µM (inactive); in the test with A549, > 100 µM (inactive); in the test with SNB-19, > 100 µM (inactive). Besides, the GI50 in the test on MDA-N is > 100 µM (inactive); in the test on SK-MEL-5, 74.8 µM (inactive); with MDA-MB-435 it was > 100 µM (inactive); in the test on SNB-75, > 100 µM (inactive); with SN12C, > 100 µM (inactive); in the test on U-251, > 100 µM (inactive).
On to `COC(=O)C1C(=O)N(CCc2c[nH]c3ccccc23)C[C@@H]2CCC(=O)C[C@H]12` (some centres not stated), for which the GI50 was > 100 µM (inactive) in the test with CAKI-1; > 100 µM (inactive) in the test on KM12; > 100 µM (inactive) with Malme-3M; > 100 µM (inactive) in the test on SK-OV-3; > 100 µM (inactive) with SK-MEL-28; above 100 µM in the test on HCT-15. In addition, the GI50 in the test on HOP-62, in the test with SF-295, in the test on HCC 2998, in the test with EKVX, with A549 and with SNB-19 was > 100 µM (inactive) each time. Also, the GI50 in the test with SK-MEL-5, in the test on SNB-75, in the test on SN12C and with U-251 was > 100 µM (inactive) in each case.
For the compound `CCCC1C(=O)Nc2cccc3ncn(c23)C1=O` (configuration not stated), the GI50 is > 100 µM (inactive) in the test with CAKI-1; > 100 µM (inactive) in the test with KM12; > 100 µM (inactive) with Malme-3M; > 100 µM (inactive) in the test with SK-OV-3; > 100 µM (inactive) in the test with SK-MEL-28; above 100 µM in the test on HCT-15. Besides, the GI50 in the test with HOP-62, with NCI-H226, in the test with SF-295, in the test with EKVX, in the test with A549 and in the test with SNB-19 was > 100 µM (inactive) throughout. Further, the GI50 is > 100 µM (inactive) with MDA-N; > 100 µM (inactive) in the test on SK-MEL-5; > 100 µM (inactive) with MDA-MB-435; 28.8 µM (inactive) in the test on SNB-75; > 100 µM (inactive) in the test with SN12C; > 100 µM (inactive) with U-251.
In the case of `CC1(C)CC(=O)C(=[N+]=[N-])C(=O)C1`, the GI50 is > 100 µM (inactive) in the test on CAKI-1; > 100 µM (inactive) in the test with KM12; > 100 µM (inactive) in the test on Malme-3M; > 100 µM (inactive) in the test on SK-OV-3; > 100 µM (inactive) in the test with SK-MEL-28; above 100 µM in the test with HCT-15. Also, the GI50 with HOP-62, with NCI-H226, with SF-295, with HCC 2998, with EKVX and with A549 was > 100 µM (inactive) throughout. In addition, the GI50 in the test with SNB-19, in the test with SNB-75 and in the test with SN12C was > 100 µM (inactive) in each case.
For `COC(=O)C1=CC2OC1(C)C1(CC1)C2=O` (configuration not stated), the GI50 was 16 µM (inactive) with CAKI-1; 20.6 µM (inactive) in the test on KM12; 11.7 µM (inactive) in the test with Malme-3M; 76.9 µM (inactive) with SK-OV-3; 15.9 µM in the test with HCT-15; > 100 µM (inactive) in the test with HOP-62. The GI50 with NCI-H226 was 21.6 µM (inactive); with SF-295 it was 19 µM (inactive); in the test with HCC 2998 it was 18.3 µM (inactive); in the test on EKVX, 15.2 µM (inactive); with A549, 24.3 µM (inactive); with SNB-19, > 100 µM (inactive). The GI50 in the test on SK-MEL-5 is > 10 µM (inactive); in the test on SNB-75 it was 19.8 µM (inactive); in the test on SN12C, 16.6 µM (inactive); in the test with U-251, > 100 µM (inactive).
For the compound `C[C@]12CCC(O)CC1=CC[C@@H]1[C@@H]2CC[C@]2(C)C(=O)[C@H](n3ccnc3)C[C@@H]12` (some centres not stated), the GI50 is > 100 µM (inactive) in the test on CAKI-1; 38.9 µM (inactive) in the test on KM12; > 100 µM (inactive) in the test with Malme-3M; 79.4 µM (inactive) in the test on SK-MEL-28; above 100 µM in the test with HCT-15; > 100 µM (inactive) in the test on NCI-H226. Besides, the GI50 in the test with SF-295 was 94.8 µM (inactive); in the test on EKVX, > 100 µM (inactive); in the test with A549, 91.4 µM (inactive); in the test with SNB-19 it was 79.1 µM (inactive); with MDA-N it was 57.4 µM (inactive); with SK-MEL-5, 16.2 µM (inactive). The GI50 in the test with MDA-MB-435 is 43.1 µM (inactive); with SNB-75 it was > 100 µM (inactive); in the test on SN12C, > 100 µM (inactive); with U-251 it was 61.9 µM (inactive).
On to `O=C1CC(=O)c2c(Cl)sc(Cl)c21`, for which the GI50 was > 100 µM (inactive) with CAKI-1; > 100 µM (inactive) in the test with KM12; 21.6 µM (inactive) with Malme-3M; > 100 µM (inactive) with SK-OV-3; 53.8 µM (inactive) in the test on SK-MEL-28; 64.4 µM in the test on HCT-15. In addition, the GI50 in the test on HOP-62 is > 100 µM (inactive); in the test on NCI-H226 it was 86.1 µM (inactive); with SF-295, > 100 µM (inactive); with EKVX, > 100 µM (inactive); with A549 it was 87.1 µM (inactive); with MDA-N, > 100 µM (inactive). Moreover, the GI50 is > 100 µM (inactive) in the test on SK-MEL-5; 64.1 µM (inactive) with MDA-MB-435; > 100 µM (inactive) in the test with SNB-75; > 100 µM (inactive) in the test on SN12C; > 100 µM (inactive) in the test on U-251.
With `OC1(c2ccccc2)CC2CCC(C1)N2CCCC1(c2ccc(F)cc2)OCCO1` (configuration not stated), the GI50 in the test with CAKI-1 was > 100 µM (inactive); in the test with Malme-3M, 98.4 µM (inactive); in the test with SK-OV-3, > 100 µM (inactive); with SK-MEL-28, 36.1 µM (inactive); in the test on HCT-15 it was above 100 µM; with HOP-62 it was > 100 µM (inactive). For the same compound, the GI50 was 3.26 µM (inactive) with SF-295; > 100 µM (inactive) with EKVX; > 100 µM (inactive) in the test on A549; > 100 µM (inactive) in the test with MDA-N; 21.3 µM (inactive) in the test on SK-MEL-5; > 100 µM (inactive) in the test with MDA-MB-435. Further, the GI50 in the test with SNB-75, with SN12C and in the test with U-251 was > 100 µM (inactive) throughout.
Take `CCOC(=O)c1cc(-c2cc(OC)c(OC)c([N+](=O)[O-])c2)c([N+](=O)[O-])n1C`: the GI50 in the test with KM12 is 4 µM (inactive); in the test on Malme-3M, 8.02 µM (inactive); in the test on HCT-15 it was 4.58 µM; in the test on NCI-H226 it was > 10 µM (inactive); in the test on SF-295 it was 3.42 µM (inactive); in the test with HCC 2998, 3.26 µM (inactive). The GI50 in the test on EKVX was > 10 µM (inactive); in the test with A549 it was > 10 µM (inactive); in the test on SNB-19, > 10 µM (inactive); in the test with MDA-MB-435, 2.04 µM (inactive); with SNB-75, > 10 µM (inactive); with SN12C, 6.7 µM (inactive). In addition, the GI50 in the test with U-251 is 4.26 µM (inactive).
With `COC(=O)C(Cc1nc2ccccc2nc1O)C(NO)C(=O)Nc1c(Cl)cc([N+](=O)[O-])cc1Cl` (configuration not stated), the GI50 in the test with CAKI-1 is 27.6 µM (inactive); with KM12 it was 33.7 µM (inactive); with Malme-3M it was 47.5 µM (inactive); in the test on SK-OV-3, 37.9 µM (inactive); with SK-MEL-28, 30.9 µM (inactive); in the test on HCT-15 it was 49.2 µM. The GI50 in the test on HOP-62 is 26 µM (inactive); with SF-295, 27.7 µM (inactive); in the test with HCC 2998, 59.6 µM (inactive); in the test with EKVX it was 27.7 µM (inactive); in the test with A549, 38.5 µM (inactive); in the test on SNB-19 it was 40.1 µM (inactive). Moreover, the values for the GI50 in the test on SK-MEL-5, in the test with SN12C and in the test on U-251 were 18 µM (inactive), 45.3 µM (inactive) and 31.3 µM (inactive), respectively.
Turning to `CCOC(=O)C1N(S(=O)(=O)c2ccc(C)cc2)CCC12c1ccccc1N(C(C)=O)C2C(/C=C/C(=O)OC)=C/C(=O)OC` (configuration not stated), the GI50 in the test on CAKI-1, in the test with KM12, with Malme-3M, in the test with SK-OV-3, in the test on SK-MEL-28 and in the test with HOP-62 was > 100 µM (inactive) in each case. The GI50 was > 100 µM (inactive) with NCI-H226; > 100 µM (inactive) in the test with SF-295; > 100 µM (inactive) in the test with HCC 2998; > 100 µM (inactive) in the test with EKVX; 84.1 µM (inactive) in the test on A549; > 100 µM (inactive) in the test on SNB-19. Moreover, the GI50 in the test on SK-MEL-5, in the test with SNB-75, with SN12C and in the test with U-251 was > 100 µM (inactive) in each case.

The values above are taken from ChEMBL document CHEMBL1201862, “PubChem BioAssay data set” (2004).
